{"source": "patent US20260041620A1", "about": "“NOVEL AMINO ACID BASED SALTS, COMPOSITIONS AND METHODS FOR TREATING SKIN AND IMPROVING SKIN REJUVENATION AND LONGEVITY” (Sytheon Ltd, priority 2023, published 2026)", "origin": "cited, not measured here", "details_in_all_cases": "reported, abcam; cited from earlier work", "key": {"HDAC7": {"biological_target": "T1, HDAC7 (Homo sapiens, UniProt Q8WUI4)", "T1 sequence (Q8WUI4 1-952)": "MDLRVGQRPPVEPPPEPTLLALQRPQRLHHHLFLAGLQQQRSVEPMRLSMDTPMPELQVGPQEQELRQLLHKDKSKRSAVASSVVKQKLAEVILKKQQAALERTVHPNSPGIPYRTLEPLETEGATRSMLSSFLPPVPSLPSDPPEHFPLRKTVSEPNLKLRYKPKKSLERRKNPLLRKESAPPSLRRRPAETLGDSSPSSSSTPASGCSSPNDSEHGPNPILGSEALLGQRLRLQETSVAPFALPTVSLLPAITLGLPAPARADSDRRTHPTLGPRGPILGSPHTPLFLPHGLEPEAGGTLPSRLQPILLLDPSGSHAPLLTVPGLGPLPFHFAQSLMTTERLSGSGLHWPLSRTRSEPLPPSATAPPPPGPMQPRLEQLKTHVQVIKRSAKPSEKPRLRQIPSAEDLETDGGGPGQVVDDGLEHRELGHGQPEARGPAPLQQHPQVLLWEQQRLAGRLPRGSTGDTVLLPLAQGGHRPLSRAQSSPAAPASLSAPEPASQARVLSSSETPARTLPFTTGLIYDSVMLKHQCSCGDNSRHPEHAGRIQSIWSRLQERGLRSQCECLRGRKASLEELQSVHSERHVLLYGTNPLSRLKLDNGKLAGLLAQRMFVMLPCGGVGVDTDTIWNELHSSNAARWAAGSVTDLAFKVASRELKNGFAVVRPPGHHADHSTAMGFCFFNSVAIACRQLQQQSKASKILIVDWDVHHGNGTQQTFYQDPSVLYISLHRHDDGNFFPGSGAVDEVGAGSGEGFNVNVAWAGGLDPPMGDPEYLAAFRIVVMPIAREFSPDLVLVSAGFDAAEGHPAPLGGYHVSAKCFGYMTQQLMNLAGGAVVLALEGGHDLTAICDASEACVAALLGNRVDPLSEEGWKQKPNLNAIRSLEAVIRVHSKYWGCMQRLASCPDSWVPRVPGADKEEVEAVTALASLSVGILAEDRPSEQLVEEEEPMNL"}, "HDAC6": {"biological_target": "T2, HDAC6 (Homo sapiens, UniProt Q9UBN7)", "T2 sequence (Q9UBN7 1-1215)": "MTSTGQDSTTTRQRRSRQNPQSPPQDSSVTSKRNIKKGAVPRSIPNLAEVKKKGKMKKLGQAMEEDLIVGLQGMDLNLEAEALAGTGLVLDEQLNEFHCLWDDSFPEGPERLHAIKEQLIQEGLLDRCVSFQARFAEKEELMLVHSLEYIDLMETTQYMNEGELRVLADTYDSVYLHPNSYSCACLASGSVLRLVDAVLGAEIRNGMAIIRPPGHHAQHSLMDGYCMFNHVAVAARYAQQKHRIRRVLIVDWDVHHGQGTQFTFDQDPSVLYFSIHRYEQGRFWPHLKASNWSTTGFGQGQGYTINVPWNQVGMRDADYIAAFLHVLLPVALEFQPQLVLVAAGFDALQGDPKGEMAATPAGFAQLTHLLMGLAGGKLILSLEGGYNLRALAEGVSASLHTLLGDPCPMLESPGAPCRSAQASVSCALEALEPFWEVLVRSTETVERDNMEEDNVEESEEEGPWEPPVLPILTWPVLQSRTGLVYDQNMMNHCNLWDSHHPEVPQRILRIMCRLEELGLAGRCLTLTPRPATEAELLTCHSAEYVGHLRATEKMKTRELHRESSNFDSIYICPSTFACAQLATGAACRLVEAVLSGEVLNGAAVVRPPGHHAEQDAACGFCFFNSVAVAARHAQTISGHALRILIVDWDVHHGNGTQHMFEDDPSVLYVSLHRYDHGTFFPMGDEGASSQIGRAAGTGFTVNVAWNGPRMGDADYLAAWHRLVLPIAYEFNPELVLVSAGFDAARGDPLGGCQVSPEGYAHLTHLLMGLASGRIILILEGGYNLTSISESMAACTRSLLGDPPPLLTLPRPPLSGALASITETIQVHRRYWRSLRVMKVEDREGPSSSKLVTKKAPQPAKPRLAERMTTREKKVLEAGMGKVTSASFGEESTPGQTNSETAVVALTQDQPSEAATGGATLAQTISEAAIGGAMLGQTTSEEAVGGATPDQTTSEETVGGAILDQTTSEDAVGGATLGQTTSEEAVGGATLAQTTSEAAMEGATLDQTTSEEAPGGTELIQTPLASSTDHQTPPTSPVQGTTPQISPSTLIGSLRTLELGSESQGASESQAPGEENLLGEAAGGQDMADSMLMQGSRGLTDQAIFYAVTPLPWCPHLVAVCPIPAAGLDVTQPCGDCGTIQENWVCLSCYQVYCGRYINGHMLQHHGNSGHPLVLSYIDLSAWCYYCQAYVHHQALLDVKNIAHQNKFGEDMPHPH"}, "HDAC10": {"biological_target": "T3, HDAC10 (Homo sapiens, UniProt Q969S8)", "T3 sequence (Q969S8 1-669)": "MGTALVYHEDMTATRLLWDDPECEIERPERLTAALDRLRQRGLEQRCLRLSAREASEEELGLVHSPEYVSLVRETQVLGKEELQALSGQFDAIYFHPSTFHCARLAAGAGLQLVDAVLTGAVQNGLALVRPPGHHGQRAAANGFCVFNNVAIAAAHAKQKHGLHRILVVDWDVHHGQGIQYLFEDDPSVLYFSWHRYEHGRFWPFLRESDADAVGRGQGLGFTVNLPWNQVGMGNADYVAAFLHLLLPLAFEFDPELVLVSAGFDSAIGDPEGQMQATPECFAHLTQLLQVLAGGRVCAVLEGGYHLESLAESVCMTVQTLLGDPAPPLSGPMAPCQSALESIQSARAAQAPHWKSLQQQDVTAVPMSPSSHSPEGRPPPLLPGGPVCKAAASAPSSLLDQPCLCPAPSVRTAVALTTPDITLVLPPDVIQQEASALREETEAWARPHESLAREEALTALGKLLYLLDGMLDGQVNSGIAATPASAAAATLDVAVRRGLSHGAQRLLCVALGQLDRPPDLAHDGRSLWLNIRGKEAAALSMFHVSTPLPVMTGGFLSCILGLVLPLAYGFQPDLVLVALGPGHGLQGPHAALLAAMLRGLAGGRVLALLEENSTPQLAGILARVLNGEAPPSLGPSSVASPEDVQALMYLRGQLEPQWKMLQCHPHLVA"}}}
{"molecule": "CCCC(=O)[O-].[Na+]", "note": "[Sodium butyrate, reference compound]", "values": [{"measurement": "IC50", "setting": "HDAC7", "value": 300, "unit": "µM"}, {"measurement": "inhibition of HDAC6", "setting": "HDAC6", "value": "no inhibition"}, {"measurement": "inhibition of HDAC10", "setting": "HDAC10", "value": "no inhibition"}]}
